Our source for the IC50 values is ChEMBL document CHEMBL1131709, “Acyl-CoA: cholesterol acyltransferase inhibitory activity of ginseng sapogenins, produced from the ginseng saponins” (Bioorg Med Chem Lett, 1999).

As usually defined, the IC50 is the concentration that gives 50% inhibition. A high value points to a need for much substance.

The assay concerns the target T1, Sterol O-acyltransferase 1 (Rattus norvegicus, UniProt O70536).
T1 sequence (O70536 whole entry): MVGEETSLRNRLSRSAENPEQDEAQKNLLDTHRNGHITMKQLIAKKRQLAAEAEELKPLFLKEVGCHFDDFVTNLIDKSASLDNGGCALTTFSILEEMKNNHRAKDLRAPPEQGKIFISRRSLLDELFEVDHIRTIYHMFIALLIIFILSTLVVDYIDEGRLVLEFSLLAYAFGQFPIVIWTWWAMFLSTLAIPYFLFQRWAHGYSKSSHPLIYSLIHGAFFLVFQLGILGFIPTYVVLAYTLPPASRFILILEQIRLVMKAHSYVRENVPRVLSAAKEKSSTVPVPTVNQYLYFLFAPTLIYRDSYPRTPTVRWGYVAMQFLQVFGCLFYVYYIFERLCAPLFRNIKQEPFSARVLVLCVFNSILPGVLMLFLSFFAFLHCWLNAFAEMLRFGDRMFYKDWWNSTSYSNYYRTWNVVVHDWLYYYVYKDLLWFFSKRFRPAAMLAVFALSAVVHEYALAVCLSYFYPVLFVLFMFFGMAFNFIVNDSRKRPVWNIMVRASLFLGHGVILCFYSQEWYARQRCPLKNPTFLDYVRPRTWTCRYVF
Kind of assay: In vitro inhibitory activity of compound was measured on rat liver Acyl coenzyme A:cholesterol acyltransferase.
For `CC(C)=CCC[C@@](C)(O)[C@H]1CC[C@]2(C)[C@@H]1[C@H](O)C[C@@H]1[C@@]3(C)CC[C@H](O)C(C)(C)[C@@H]3CC[C@]12C`, the IC50 was 10 µM.

In turn, `CC1(C)CCC[C@@](C)(C2CC[C@]3(C)C2[C@H](O)CC2[C@@]4(C)CC[C@H](O)C(C)(C)C4CC[C@]23C)O1` (stereo partly drawn) displayed an IC50 of 25 µM.

In turn, `CC(C)=CCC[C@](C)(O)C1CC[C@]2(C)C1[C@H](O)CC1[C@@]3(C)CC[C@H](O)C(C)(C)C3[C@@H](O)C[C@]12C` (stereo partly drawn) had an IC50 of 24 µM.

For `CC(C)=CCC[C@](C)(O)[C@H]1CC[C@]2(C)[C@@H]1[C@H](O)C[C@@H]1[C@@]3(C)CC[C@H](O)C(C)(C)[C@@H]3CC[C@]12C`, half-maximal inhibition (IC50) required 30 µM.

The compound `CC1(C)CCC[C@@](C)(C2CC[C@]3(C)C2[C@H](O)CC2[C@@]4(C)CC[C@H](O)C(C)(C)C4[C@@H](O)C[C@]23C)O1` (stereo partly drawn) had an IC50 of 28 µM.

`CC1(C)CCC[C@](C)(C2CC[C@]3(C)C2[C@H](O)CC2[C@@]4(C)CC[C@H](O)C(C)(C)C4CC[C@]23C)O1` (stereo partly drawn) yielded a half-inhibitory concentration (IC50) of 55 µM.

The compound `CC(C)=CCC[C@@](C)(O)[C@H]1CC[C@]2(C)C1[C@H](O)C[C@@H]1[C@@]3(C)CC[C@H](O)C(C)(C)[C@@H]3[C@@H](O)C[C@]12C` (stereo partly drawn) yielded an IC50 of 6 µM.

Consider `CC1(C)CCC[C@](C)(C2CC[C@]3(C)C2[C@H](O)CC2[C@@]4(C)CC[C@H](O)C(C)(C)C4[C@@H](O)C[C@]23C)O1` (stereo partly drawn), for which it took 12 µM to reach half-maximal inhibition (IC50).
